Source: article PMC3723861, “Nitrile hydratase of Rhodococcus erythropolis: characterization of the enzyme and the use of whole cells for biotransformation of nitriles” (3 Biotech, 2012)

Tested on: T1, nitrile hydratase
T1 construct: gene nthA; native intracellular enzyme purified from R. erythropolis MTCC 1526 grown with CoCl2; subunits about 29 kDa (alpha) and 30 kDa (beta); native 65 kDa
Assay: nicotinamide formation by HPLC, Lineweaver-Burk plot
Assay type: biochemical, Rhodococcus erythropolis
Settings: pH 7.0, 20 mM phosphate buffer, 25 °C (Fig. 6 legend says 20 °C); 0.2-2.0 mM substrate

N#Cc1cccnc1 [3-cyanopyridine]
Km: 624 µM
